Legend:
αllbβ3 integrin = biological target: T1, αllbβ3 integrin (Homo sapiens, UniProt P05106+P08514); test: ELISA: inhibition of binding of αllbβ3 integrin membrane preparation to coated extracellular matrix protein; conditions: human platelet membrane preparation
T1 construct: Human platelet membrane preparations were used as a source of αllbβ3 integrin; from tissue; host or cells: human platelets (membrane preparation)
Summary of the method: (§1)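 Integrin sources were human platelet membrane preparations for αIIbβ3 and WM-115 cells for αVβ3, each preincubated with test compound. Binding to fibrinogen- or vitronectin-coated plates (10 µg/well) was quantified with an anti-integrin β3 antibody and an HRP-coupled secondary antibody using colorimetric detection.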

αVβ3 integrin = biological target: T2, αVβ3 integrin (Homo sapiens, UniProt P05106+P06756); test: ELISA: inhibition of binding of αVβ3 integrin (source WM-115 cell line) to coated extracellular matrix protein; conditions: WM-115 cell line as integrin source
T2 construct: the cell line WM-115 was used as a source of αVβ3 integrin; endogenous in cells; host or cells: WM-115 cell line
T2 sequence (P06756 31-889 limits assumed): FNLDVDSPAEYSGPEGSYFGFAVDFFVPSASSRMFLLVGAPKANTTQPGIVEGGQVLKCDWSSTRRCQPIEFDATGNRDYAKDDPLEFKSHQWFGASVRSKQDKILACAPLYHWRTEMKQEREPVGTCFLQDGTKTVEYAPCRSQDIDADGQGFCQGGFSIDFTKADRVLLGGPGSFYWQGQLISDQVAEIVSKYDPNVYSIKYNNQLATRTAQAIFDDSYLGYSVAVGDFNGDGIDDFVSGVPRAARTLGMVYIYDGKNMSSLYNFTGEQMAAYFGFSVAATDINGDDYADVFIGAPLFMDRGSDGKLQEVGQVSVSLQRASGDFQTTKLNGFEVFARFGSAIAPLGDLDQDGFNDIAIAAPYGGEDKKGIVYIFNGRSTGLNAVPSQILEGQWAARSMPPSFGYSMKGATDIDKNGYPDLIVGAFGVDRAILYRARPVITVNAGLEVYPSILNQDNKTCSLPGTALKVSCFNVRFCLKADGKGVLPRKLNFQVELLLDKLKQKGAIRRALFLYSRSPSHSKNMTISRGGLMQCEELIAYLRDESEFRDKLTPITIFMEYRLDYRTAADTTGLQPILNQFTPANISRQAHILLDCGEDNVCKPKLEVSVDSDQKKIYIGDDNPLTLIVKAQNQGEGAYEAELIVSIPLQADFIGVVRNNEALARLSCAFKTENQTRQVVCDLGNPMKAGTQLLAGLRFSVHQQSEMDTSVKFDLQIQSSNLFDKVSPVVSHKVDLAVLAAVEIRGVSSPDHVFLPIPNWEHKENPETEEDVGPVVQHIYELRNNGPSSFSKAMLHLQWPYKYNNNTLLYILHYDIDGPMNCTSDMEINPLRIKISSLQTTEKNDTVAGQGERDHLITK
T2 sequence (P06756 891-1048 partner limits assumed): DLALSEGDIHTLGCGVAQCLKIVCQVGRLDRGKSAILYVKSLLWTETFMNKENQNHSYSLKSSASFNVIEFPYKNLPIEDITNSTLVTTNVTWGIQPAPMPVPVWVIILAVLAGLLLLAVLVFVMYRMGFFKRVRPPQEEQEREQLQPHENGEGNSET
T2 sequence (P05106 27-788): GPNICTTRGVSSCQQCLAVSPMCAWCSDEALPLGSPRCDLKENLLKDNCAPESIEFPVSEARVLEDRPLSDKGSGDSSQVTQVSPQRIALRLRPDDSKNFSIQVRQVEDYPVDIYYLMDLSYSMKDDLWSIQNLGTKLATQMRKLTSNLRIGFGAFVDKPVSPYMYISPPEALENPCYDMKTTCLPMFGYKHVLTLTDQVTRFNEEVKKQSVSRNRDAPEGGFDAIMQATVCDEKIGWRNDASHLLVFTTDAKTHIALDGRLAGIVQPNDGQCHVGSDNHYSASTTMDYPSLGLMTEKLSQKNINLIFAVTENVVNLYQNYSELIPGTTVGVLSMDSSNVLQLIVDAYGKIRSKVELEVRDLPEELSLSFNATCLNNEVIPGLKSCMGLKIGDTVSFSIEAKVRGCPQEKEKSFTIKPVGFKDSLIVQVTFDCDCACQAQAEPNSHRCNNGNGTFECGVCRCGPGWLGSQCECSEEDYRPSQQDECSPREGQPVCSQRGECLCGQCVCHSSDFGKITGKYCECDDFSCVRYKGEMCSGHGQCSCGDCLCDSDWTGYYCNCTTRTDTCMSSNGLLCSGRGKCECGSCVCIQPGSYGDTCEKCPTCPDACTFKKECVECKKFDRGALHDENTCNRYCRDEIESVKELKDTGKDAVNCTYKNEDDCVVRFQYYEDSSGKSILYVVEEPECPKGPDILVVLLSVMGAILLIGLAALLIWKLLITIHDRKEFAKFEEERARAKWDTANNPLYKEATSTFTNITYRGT
Summary of the method: as §1

T1 sequence (P08514 32-887 limits assumed): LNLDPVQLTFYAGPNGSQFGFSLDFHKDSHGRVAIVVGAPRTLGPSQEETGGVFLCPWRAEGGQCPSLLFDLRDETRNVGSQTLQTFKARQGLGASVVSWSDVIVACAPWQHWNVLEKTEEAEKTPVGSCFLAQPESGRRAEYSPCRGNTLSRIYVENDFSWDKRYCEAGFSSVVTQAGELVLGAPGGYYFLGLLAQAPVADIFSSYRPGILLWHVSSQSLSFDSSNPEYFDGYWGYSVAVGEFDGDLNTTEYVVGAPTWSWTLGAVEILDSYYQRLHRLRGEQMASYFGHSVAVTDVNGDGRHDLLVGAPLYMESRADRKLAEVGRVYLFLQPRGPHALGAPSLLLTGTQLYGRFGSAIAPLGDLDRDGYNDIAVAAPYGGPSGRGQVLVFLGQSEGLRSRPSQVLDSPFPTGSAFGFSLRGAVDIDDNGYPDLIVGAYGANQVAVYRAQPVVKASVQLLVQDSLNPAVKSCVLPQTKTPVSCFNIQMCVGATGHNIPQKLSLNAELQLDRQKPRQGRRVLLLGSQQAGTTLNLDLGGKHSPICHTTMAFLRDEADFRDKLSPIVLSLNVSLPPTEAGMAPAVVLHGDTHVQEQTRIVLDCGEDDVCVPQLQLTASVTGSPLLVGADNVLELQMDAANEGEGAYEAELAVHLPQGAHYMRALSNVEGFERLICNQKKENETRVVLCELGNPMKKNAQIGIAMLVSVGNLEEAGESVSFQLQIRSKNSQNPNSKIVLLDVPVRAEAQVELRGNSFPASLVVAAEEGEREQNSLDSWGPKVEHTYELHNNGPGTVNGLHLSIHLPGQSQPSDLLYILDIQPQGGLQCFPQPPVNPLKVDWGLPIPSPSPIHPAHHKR
T1 sequence (P08514 891-1039 partner limits assumed): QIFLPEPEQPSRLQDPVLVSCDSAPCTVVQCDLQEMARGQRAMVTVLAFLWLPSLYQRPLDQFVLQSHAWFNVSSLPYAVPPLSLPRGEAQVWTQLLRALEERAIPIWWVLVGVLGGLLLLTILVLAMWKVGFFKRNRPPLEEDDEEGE
T1 sequence (P05106 27-788): as the sequence (P05106 27-788) above

| SMILES | INHIBITION @ 250 uM RECEPTOR allBb3 SUBSTRATE FIBRINOGEN (αllbβ3 integrin) | INHIBITION 250 uM RECEPTOR allBb3 SUBSTRATE VITRONECTIN (αllbβ3 integrin) | INHIBITION 250 uM RECEPTOR aVb3 SUBSTRATE FIBRINOGEN (αVβ3 integrin) |
| --- | --- | --- | --- |
| CCOC1OC(COCc2ccccc2)C(O)C(OCc2cccc(N)c2)C1NC(=O)c1ccc(C(=O)O)cc1 (single isomer, unassigned) [Compound 69] | − (0% to 35% inhibition at 250 micromolar) | +++ (81% to 100% inhibition at 250 micromolar) | +++ (81% to 100% inhibition at 250 micromolar) |
| Nc1cccc(COC2C(O)C(COCc3ccccc3)OC(O)C2NC(=O)c2ccc(C(=O)O)cc2)c1 (single isomer, unassigned) [Compound 70] | + (36% to 60% inhibition at 250 micromolar) | +++ (81% to 100% inhibition at 250 micromolar) | +++ (81% to 100% inhibition at 250 micromolar) |
| Nc1cccc(COC2C(O)C(COCc3ccccc3)OC(O)C2NC(=O)c2ccc(C(=O)O)cc2)c1 (single isomer, unassigned) [Compound 71] | − (0% to 35% inhibition at 250 micromolar) | +++ (81% to 100% inhibition at 250 micromolar) | +++ (81% to 100% inhibition at 250 micromolar) |
| CCOC1OC(COCc2ccc(Br)cc2)C(O)C(OCc2cccc(N)c2)C1NC(=O)c1ccc(C(=O)O)cc1 (single isomer, unassigned) [Compound 72] | + (36% to 60% inhibition at 250 micromolar) | +++ (81% to 100% inhibition at 250 micromolar) | +++ (81% to 100% inhibition at 250 micromolar) |
| CCOC1OC(COCc2ccc(Br)cc2)C(O)C(OCc2cccc(N)c2)C1NC(=O)c1ccc(C(=O)O)cc1 (single isomer, unassigned) [Compound 73] | ++ (61% to 80% inhibition at 250 micromolar) | +++ (81% to 100% inhibition at 250 micromolar) | − (0% to 35% inhibition at 250 micromolar) |
| Nc1cccc(COC2C(O)C(COCc3ccc(Br)cc3)OC(O)C2NC(=O)c2ccc(C(=O)O)cc2)c1 (single isomer, unassigned) [Compound 74] | − (0% to 35% inhibition at 250 micromolar) | +++ (81% to 100% inhibition at 250 micromolar) | − (0% to 35% inhibition at 250 micromolar) |
| Nc1cccc(COC2C(O)C(COCc3ccc(Br)cc3)OC(O)C2NC(=O)c2ccc(C(=O)O)cc2)c1 (single isomer, unassigned) [Compound 75] | + (36% to 60% inhibition at 250 micromolar) | +++ (81% to 100% inhibition at 250 micromolar) | − (0% to 35% inhibition at 250 micromolar) |
| CCOC1OC(COCC(=O)O)C(O)C(OCc2cccc(N)c2)C1NC(=O)c1ccc(Cl)cc1 (single isomer, unassigned) [Compound 76] | − (0% to 35% inhibition at 250 micromolar) | − (0% to 35% inhibition at 250 micromolar) | − (0% to 35% inhibition at 250 micromolar) |
| CCOC1OC(COCC(=O)O)C(O)C(OCc2cccc(N)c2)C1NC(=O)c1ccc(Cl)cc1 (single isomer, unassigned) [Compound 77] | ++ (61% to 80% inhibition at 250 micromolar) | +++ (81% to 100% inhibition at 250 micromolar) | + (36% to 60% inhibition at 250 micromolar) |
| CCOC1OC(COCc2ccc(C(=O)O)cc2)C(O)C(OCc2cccc(N)c2)C1NC(=O)c1ccc(Cl)cc1 (single isomer, unassigned) [Compound 78] | − (0% to 35% inhibition at 250 micromolar) | +++ (81% to 100% inhibition at 250 micromolar) | +++ (81% to 100% inhibition at 250 micromolar) |
| CCOC1OC(COCc2ccc(C(=O)O)cc2)C(O)C(OCc2cccc(N)c2)C1NC(=O)c1ccc(Cl)cc1 (single isomer, unassigned) [Compound 79] | + (36% to 60% inhibition at 250 micromolar) | +++ (81% to 100% inhibition at 250 micromolar) | +++ (81% to 100% inhibition at 250 micromolar) |
| Nc1cccc(COC2C(O)C(COCc3ccc(C(=O)O)cc3)OC(O)C2NC(=O)c2ccc(Cl)cc2)c1 (single isomer, unassigned) [Compound 81] | + (36% to 60% inhibition at 250 micromolar) | +++ (81% to 100% inhibition at 250 micromolar) | +++ (81% to 100% inhibition at 250 micromolar) |
| Nc1cccc(COC2C(O)C(COCc3ccc(C(=O)O)cc3)OC(O)C2NC(=O)c2ccc(Cl)cc2)c1 (single isomer, unassigned) [Compound 82] | ++ (61% to 80% inhibition at 250 micromolar) | + (36% to 60% inhibition at 250 micromolar) | ++ (61% to 80% inhibition at 250 micromolar) |
| CCOC1C(O)C(COCC(=O)O)OC(OCc2ccccc2)C1NC(=O)c1cccc(N)c1 (single isomer, unassigned) [Compound 84] | − (0% to 35% inhibition at 250 micromolar) | − (0% to 35% inhibition at 250 micromolar) | − (0% to 35% inhibition at 250 micromolar) |
| CCOC1C(O)C(COCC(=O)O)OC(OCc2ccccc2)C1NC(=O)c1cccc(N)c1 (single isomer, unassigned) [Compound 85] | − (0% to 35% inhibition at 250 micromolar) | +++ (81% to 100% inhibition at 250 micromolar) | − (0% to 35% inhibition at 250 micromolar) |
| CCOC1C(O)C(COCc2ccc(C(=O)O)cc2)OC(OCc2ccccc2)C1NC(=O)CCNC(=N)N (single isomer, unassigned) [Compound 86] | − (0% to 35% inhibition at 250 micromolar) | +++ (81% to 100% inhibition at 250 micromolar) | − (0% to 35% inhibition at 250 micromolar) |
| CCOC1C(O)C(COCc2ccc(C(=O)O)cc2)OC(OCc2ccccc2)C1NC(=O)CCNC(=N)N (single isomer, unassigned) [Compound 87] | − (0% to 35% inhibition at 250 micromolar) | +++ (81% to 100% inhibition at 250 micromolar) | − (0% to 35% inhibition at 250 micromolar) |
| CCOC1C(O)C(COCc2cccc(N)c2)OC(OCc2ccccc2)C1NC(=O)CCC(=O)O (single isomer, unassigned) [Compound 88] | − (0% to 35% inhibition at 250 micromolar) | ++ (61% to 80% inhibition at 250 micromolar) | − (0% to 35% inhibition at 250 micromolar) |
| CCOC1C(O)C(COCc2cccc(N)c2)OC(OCc2ccccc2)C1NC(=O)CCC(=O)O (single isomer, unassigned) [Compound 89] | − (0% to 35% inhibition at 250 micromolar) | +++ (81% to 100% inhibition at 250 micromolar) | + (36% to 60% inhibition at 250 micromolar) |
| COCC1OC(OCc2ccccc2)C(NC(=O)CCNC(=N)N)C(OCC(=O)O)C1O (single isomer, unassigned) [Compound 90] | − (0% to 35% inhibition at 250 micromolar) | +++ (81% to 100% inhibition at 250 micromolar) | − (0% to 35% inhibition at 250 micromolar) |
| COCC1OC(OCc2ccccc2)C(NC(=O)CCNC(=N)N)C(OCC(=O)O)C1O (single isomer, unassigned) [Compound 91] | + (36% to 60% inhibition at 250 micromolar) | + (36% to 60% inhibition at 250 micromolar) | − (0% to 35% inhibition at 250 micromolar) |
| CCOCC1OC(OCc2ccccc2)C(NC(=O)CCNC(=N)N)C(OCC(=O)O)C1O (single isomer, unassigned) [Compound 92] | + (36% to 60% inhibition at 250 micromolar) | +++ (81% to 100% inhibition at 250 micromolar) | ++ (61% to 80% inhibition at 250 micromolar) |
| CCOCC1OC(OCc2ccccc2)C(NC(=O)CCNC(=N)N)C(OCC(=O)O)C1O (single isomer, unassigned) [Compound 93] | − (0% to 35% inhibition at 250 micromolar) | +++ (81% to 100% inhibition at 250 micromolar) | +++ (81% to 100% inhibition at 250 micromolar) |
| N=C(N)NCCC(=O)NC1C(OCc2ccccc2)OC(CO)C(O)C1OCC(=O)O (single isomer, unassigned) [Compound 94] | − (0% to 35% inhibition at 250 micromolar) | + (36% to 60% inhibition at 250 micromolar) | − (0% to 35% inhibition at 250 micromolar) |
